The text below walks through data of the SangsterLogP compilation.

Molecule `N[C@@H](Cc1ccc(O)c(O)c1)C(=O)OC1CCOC1` (stereo partly drawn) yielded a logP of -0.45.
As to `N[C@@H](Cc1ccc(O)c(O)c1)C(=O)OCC1CCCO1` (stereo partly drawn), the lipophilicity (logP) came to 0.01.
In the case of `CC(C)OC(=O)[C@@H](N)Cc1ccc(O)c(O)c1` it was 0.52; in that of `COC(=O)[C@@H](N)Cc1ccc(O)cc1`, 0.18.
In the case of `COC(=O)[C@@H](N)Cc1ccc(O)c(O)c1` it was -0.28; in that of `CC(C)(C)OC(=O)N[C@@H](Cc1ccc(O)c(O)c1)C(=O)O`, -1.86.
In the case of `CC(C)(C)OC(=O)[C@@H](N)Cc1ccc(O)c(O)c1` it was 0.81.
On to `N[C@@H](Cc1ccccc1)C(=O)OCc1ccccc1`, for which the log partition coefficient (logP) came out at 2.48.
As for `CCOC(=O)[C@@H](N)Cc1ccc(O)cc1`, the figure is 0.6; as for `CCC(C)OC(=O)[C@@H](N)Cc1ccc(O)c(O)c1` (stereo partly drawn), 0.93; as for `CCC(C)OC(=O)[C@@H](N)Cc1ccc(O)cc1` (stereo partly drawn), 1.59.
As to `N[C@@H](Cc1ccc(O)cc1)C(=O)Oc1ccc([N+](=O)[O-])cc1`, the logP was 1.62.
As for `CC(C)OC(=O)[C@@H](N)Cc1ccc(O)cc1`, the figure is 0.99.

In general, logP refers to a log measure of how a compound divides between an organic and an aqueous phase. Low values mean lower lipophilicity, high ones higher lipophilicity.
